Tests used:
Assay in all cases: relative viability (nuclei count vs DMSO), 5 days (fraction); higher = more cells survive
[1] = compound: Cc1ccc2nc(NCCN)c3ncc(C)n3c2c1 + C[C@@H](Oc1cc(-c2cnn(C3CCNCC3)c2)cnc1N)c1c(Cl)ccc(F)c1Cl [Crizotinib] (partner 1 µM)
Outline: (§1)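 Five library-drug doses in √10 steps were combined with a fixed anchor-drug dose, or a single drug was given alone, by pin tool to lung cancer cell lines in 1536-well plates the day after seeding. Nuclei were stained and counted after 5 days. Relative viability is the nuclei count in treated wells over that in vehicle wells, taken as the median of duplicate plates.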

[2] = compound: Cc1ccc2nc(NCCN)c3ncc(C)n3c2c1 + C[C@]1(O)C[C@@H](c2nc(-c3ccc4ccc(-c5ccccc5)nc4c3)c3c(N)nccn32)C1 [Linsitinib] (partner 1 µM)
Outline: as §1

[3] = compound: O=C(/C=C/c1ccccc1)NC(NC(=S)Nc1cccc2cccnc12)C(Cl)(Cl)Cl [Salubrinal] + CC(=O)c1c(C)c2cnc(Nc3ccc(N4CCNCC4)cn3)nc2n(C2CCCC2)c1=O [Palbociclib] (partner 0.5 µM)
Outline: as §1

[4] = compound: O=C(/C=C/c1ccccc1)NC(NC(=S)Nc1cccc2cccnc12)C(Cl)(Cl)Cl [Salubrinal] + Nc1ncn([C@H]2C[C@H](O)[C@@H](CO)O2)c(=O)n1 [Decitabine] (partner 2 µM)
Outline: as §1

| Cell Line | relative viability ([1]; first compound 0.04 µM) | relative viability ([1]; first compound 0.1265 µM) | relative viability ([1]; first compound 0.4 µM) | relative viability ([1]; first compound 1.265 µM) | relative viability ([1]; first compound 4 µM) | relative viability ([2]; first compound 0.04 µM) | relative viability ([2]; first compound 0.1265 µM) | relative viability ([2]; first compound 0.4 µM) | relative viability ([2]; first compound 1.265 µM) | relative viability ([2]; first compound 4 µM) | relative viability ([3]; first compound 0.08 µM) | relative viability ([3]; first compound 0.253 µM) | relative viability ([3]; first compound 0.8 µM) | relative viability ([3]; first compound 2.53 µM) | relative viability ([3]; first compound 8 µM) | relative viability ([4]; first compound 0.08 µM) | relative viability ([4]; first compound 0.253 µM) | relative viability ([4]; first compound 0.8 µM) | relative viability ([4]; first compound 2.53 µM) | relative viability ([4]; first compound 8 µM) |
| --- | --- | --- | --- | --- | --- | --- | --- | --- | --- | --- | --- | --- | --- | --- | --- | --- | --- | --- | --- | --- |
| PC-3 [JPC-3] | 0.973 | 0.992 | 0.974 | 0.947 | 0.966 | 0.962 | 0.941 | 0.924 | 0.948 | 0.947 | 0.514 | 0.579 | 0.539 | 0.28 | 0.629 | 0.848 | 0.836 | 0.891 | 0.848 | 0.81 |
| PC-14 | 1.08 | 0.862 | 0.864 | 0.901 | 0.892 | 0.962 | 0.957 | 0.947 | 0.964 | 0.9 | 0.708 | 0.434 | 0.609 | 0.47 | 0.384 | 0.211 | 0.228 | 0.201 | 0.189 | 0.236 |
| RERF-LC-KJ | 0.829 | 0.791 | 0.777 | 0.722 | 0.789 | 0.84 | 0.895 | 0.863 | 0.795 | 0.73 | 1.14 | 1.04 | 1.13 | 1.09 | 0.964 | 0.834 | 0.605 | 0.792 | 0.697 | 0.598 |
| SK-LU-1 | 0.926 | 0.937 | 1.01 | 0.852 | 0.83 | 1.18 | 1.09 | 1.12 | 1.16 | 1.04 | 0.368 | 0.377 | 0.411 | 0.427 | 0.341 | 0.609 | 0.597 | 0.739 | 0.685 | 0.506 |
| SK-MES-1 | 0.924 | 0.939 | 0.911 | 1.03 | 0.912 | 1.08 | 0.993 | 1.09 | 1.05 | 1.03 | 0.33 | 0.356 | 0.33 | 0.305 | 0.259 | 0.405 | 0.359 | 0.365 | 0.356 | 0.495 |
| SW 1573 | 0.924 | 0.792 | 0.704 | 0.895 | 0.659 | 0.928 | 0.824 | 0.883 | 0.985 | 0.821 | 0.445 | 0.355 | 0.378 | 0.374 | 0.3 | 0.697 | 0.372 | 0.609 | 0.488 | 0.555 |

Reference: the supplement of paper PMC10307832
